In publication PMC10997755, “Discovery of a small-molecule inhibitor that traps Polθ on DNA and synergizes with PARP inhibitors” (Nature Communications, 2024):
Where “and” joins values, the source holds several entries; their conditions need not be identical. Equal entries are not always repeated. Entries after “also recorded” stand apart in the source; their conditions may differ.

What was measured:
DLD1 BRCA2 -/- cells = test: Clonogenic assay; assay type: cell-based; conditions: for average / percent suvival / replicate counts: vehicle, DLD1-BRCA2 null cells
Protocol: (§1) Cells were plated on six or twelve or twenty-four well plates. In six well plate, 1000 cells/ well of BRCA2 -/-, BRCA1 -/-, PALB2 mut and 500 cells/ well of wildtype pair was plated; In twelve well plate, 600 cells/ well of BRCA2 -/-, BRCA1 -/-, PALB2 mut and 400 cells/ well of wildtype pair was plated; In twenty-four well plate, 500 cells/ well of BRCA2 -/-, BRCA1 -/-, PALB2 mut and 300 cells/ well of wildtype pair was plated. For MEFs, 300 cells per well in six-well plate were seeded. The medium was replaced every 2 days until the colonies were ready for staining in 10–12 days. For staining: Medium was removed from plates, and cells were rinsed with PBS. Fixation was carried out with—Water: Ethanol: Acetic acid (5:4:1) for 30 min followed by staining of colonies with 0.5% crystal violet in Water: Ethanol (3:2) for 2 h at room temperature. The plates were rinsed with water and left for drying overnight at room temperature. Colonies were then counted and IC50 was calculated using results from 3 or more independent experiments. Response curves are shown as mean colony formation +/- S.E.M.
(§2) Data are expressed as mean ± SEM from at least 3 independent experiments with triplicates for each condition unless stated otherwise. When conducting comparison between two groups, two-tailed unpaired t-test was used. Significance was assumed at p < 0.05. Asterisks in the figures indicate significance, ^∗p < 0.05, ^∗∗p < 0.01, ^∗∗∗p < 0.001. Combenefit® software version 2.021 was used to perform synergy analyses for drug combinations between RTx-161 and PARPi. GraphPad Prism 9 software was used to calculate IC50.

[1] = Clonogenic assay, OLA with or without RTX-161 (Fig. 2 a; cell line not given); assay type: cell-based; conditions: vehicle, single experiments
Polθ-pol = target: T1, Polθ-pol (Homo sapiens, UniProt O75417); test: Cy5 fluorescence Polθ-pol DNA synthesis (strand displacement) IC50 assay; assay type: biochemical; conditions: 5 nM PolQ, 18 min
T1 construct: purified recombinant human Polθ-pol (comprising amino acid residues 1792–2590); made in house
T1 sequence (O75417 1792-2590): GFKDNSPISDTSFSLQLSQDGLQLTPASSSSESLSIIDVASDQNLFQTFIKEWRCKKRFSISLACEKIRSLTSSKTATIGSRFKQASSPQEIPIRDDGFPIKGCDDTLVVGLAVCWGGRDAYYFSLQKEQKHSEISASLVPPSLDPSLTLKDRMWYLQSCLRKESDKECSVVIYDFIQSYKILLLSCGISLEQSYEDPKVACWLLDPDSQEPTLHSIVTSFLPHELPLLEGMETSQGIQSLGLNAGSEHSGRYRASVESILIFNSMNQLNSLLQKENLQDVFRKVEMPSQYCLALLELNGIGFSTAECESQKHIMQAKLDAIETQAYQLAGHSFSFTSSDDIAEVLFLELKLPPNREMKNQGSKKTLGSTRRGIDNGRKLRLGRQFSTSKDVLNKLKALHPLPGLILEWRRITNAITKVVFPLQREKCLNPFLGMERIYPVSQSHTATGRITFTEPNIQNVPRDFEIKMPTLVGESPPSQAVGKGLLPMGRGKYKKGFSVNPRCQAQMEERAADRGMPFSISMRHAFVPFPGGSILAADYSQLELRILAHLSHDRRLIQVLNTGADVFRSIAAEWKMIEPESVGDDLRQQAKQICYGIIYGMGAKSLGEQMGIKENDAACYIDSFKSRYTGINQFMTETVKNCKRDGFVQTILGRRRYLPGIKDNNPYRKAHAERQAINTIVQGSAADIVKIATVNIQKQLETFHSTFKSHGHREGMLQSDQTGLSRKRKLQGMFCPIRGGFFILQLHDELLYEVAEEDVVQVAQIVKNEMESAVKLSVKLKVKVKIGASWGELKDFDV
Protocol: The following Cy5 fluorescence assay was used to measure the ability of compounds to inhibit Polθ-pol in vitro. The fluorescent based assay was performed as follows: 60 nM of the pre-annealed primer-template containing a 5’ Cy5 fluorophore conjugated template strand (RP486-Cy5), a downstream complementary oligo conjugated with a 3’ Iowa BlackReg Dark quencher (RP343BHQRQ) and a primer strand (RP469D) was mixed with 50 uM 2'-deoxyribonucleoside triphosphates (dNTPs), 0.1 mg/mL Bovine serum albumin (BSA), 0.01% NP-40, 10% glycerol, 1 mM dithiothreitol (DTT), 10 mM MgCl2, 25 mM TrisHCl pH 7.8 in the presence of 2.5% DMSO with or without various concentrations (7-point dilution series) of Polθ-pol small-molecule inhibitors at 37 °C in a volume of 40 μL. The reactions were initiated by the addition of 5 nM of purified recombinant human Polθ-pol (comprising amino acid residues 1792–2590). The reactions were terminated by the addition of 20 mM EDTA after 18 min, and the Cy5 fluorescence intensity was measured using a CLARIOstar (BMG Labtech) plate reader. Reactions were performed in triplicate and the % inhibition at each concentration of the respective compound of Formula I was based on the mean.

DLD1 Parental cells = test: Clonogenic assay; assay type: cell-based; conditions: Olaparib 1 μM, BRCA2-WT
Protocol: as §1

MDA-MB-231 cells = test: Clonogenic assay; assay type: cell-based; conditions: Fig. 2f, vehicle (Rtx-161 zero)
Protocol: as §1, §2

## O=C(c1cc(Cc2n[nH]c(=O)c3ccccc23)ccc1F)N1CCN(C(=O)C2CC2)CC1 [OLA]
DLD1 BRCA2 -/- cells; OLA 3.125 nano M
  average: 100
  percent suvival: 96.463%
  replicate counts: 99 and 93 and 108
DLD1 BRCA2 -/- cells; OLA 6.25 nano M
  average: 86
  percent suvival: 82.9582%
  replicate counts: 84 and 95 and 79
DLD1 BRCA2 -/- cells; OLA 12.50 nano M
  average: 68.3333
  percent suvival: 65.9164%
  replicate counts: 64 and 72 and 69
DLD1 BRCA2 -/- cells; OLA 25.00 nano M
  average: 45.6667
  percent suvival: 44.0514%
  replicate counts: 49 and 40 and 48
DLD1 BRCA2 -/- cells; OLA 50.00 nano M
  average: 38
  percent suvival: 36.6559%
  replicate counts: 37 and 42 and 35
DLD1 BRCA2 -/- cells; OLA 100.00 nano M
  average: 20.3333
  percent suvival: 19.6141%
  replicate counts: 24 and 18 and 19
[1]; OLA 0.125 nano M
  percent suvival: 98.3333%
[1]; OLA 0.25 nano M
  percent suvival: 90.8333% and 74.269% and 96.7105%
[1]; OLA 0.5 nano M
  percent suvival: 67.8363% and 93.4211% and 71.6667%
[1]; OLA 1 nano M
  percent suvival: 43.3333% and 47.9532% and 73.6842%
[1]; OLA 2 nano M
  percent suvival: 35% and 27.4854% and 32.2368%
[1]; OLA 4 nano M
  percent suvival: 17.5% and 9.357% and 9.868%

## ART-558
Polθ-pol; 0.0016 μM compound, 60 nM 469D/343-BHQRQ/486-Cy5 DNA
  raw signal, Trial 1-3: 191.03 and 186.60 and 188.77
Polθ-pol; 0.0016 μM compound, 60 nM DNA
  % Activity, Average: 85.90%
  % Activity, Trial 1-3: 80.91% and 85.80% and 91.00%
  % Inhibition, Average: 14.10%
  raw signal, Average: 188.80
Polθ-pol; 0.0049 μM compound, 60 nM DNA
  % Activity, Average: 70.18%
  % Activity, Trial 1-3: 67.33% and 75.35% and 67.85%
  % Inhibition, Average: 29.82%
  % Inhibition, Trial 1-3: 32.67% and 24.65% and 32.15%
  raw signal, Average: 168.11
  raw signal, Trial 1-3: 171.92 and 173.21 and 159.20
Polθ-pol; 0.0148 μM compound, 60 nM DNA
  % Activity, Average: 44.31%
  % Activity, Trial 1-3: 42.11% and 41.00% and 49.82%
  % Inhibition, Average: 55.69%
  % Inhibition, Trial 1-3: 57.89% and 59.00% and 50.18%
  raw signal, Average: 133.93
  raw signal, Trial 1-3: 136.44 and 129.18 and 136.16
Polθ-pol; 0.0444 μM compound, 60 nM DNA
  % Activity, Average: 20.55%
  % Activity, Trial 1-3: 21.44% and 16.79% and 23.44%
  % Inhibition, Average: 79.45%
  % Inhibition, Trial 1-3: 78.56% and 83.21% and 76.56%
  raw signal, Average: 102.66
  raw signal, Trial 1-3: 107.36 and 98.15 and 102.46
Polθ-pol; 0.1333 μM compound, 60 nM DNA
  % Activity, Average: 6.69%
  % Activity, Trial 1-3: 5.64% and 7.63% and 6.80%
  % Inhibition, Average: 93.31%
  % Inhibition, Trial 1-3: 94.36% and 92.37% and 93.20%
  raw signal, Average: 84.25
  raw signal, Trial 1-3: 85.13 and 86.41 and 81.22
Polθ-pol; 0.4000 μM compound, 60 nM DNA
  % Activity, Average: 2.48%
  % Activity, Trial 1-3: 0.51% and 1.19% and 5.76%
  % Inhibition, Average: 97.52%
  % Inhibition, Trial 1-3: 99.49% and 98.81% and 94.24%
  raw signal, Average: 78.65
  raw signal, Trial 1-3: 77.91 and 78.16 and 79.89

## O=C(c1cc(Cc2n[nH]c(=O)c3ccccc23)ccc1F)N1CCN(C(=O)C2CC2)CC1 [Olaparib, reference compound]
DLD1 BRCA2 -/- cells; Olaparib 1 μM, BRCA2-NULL
  Average (colonies): 0
  Percent survival: 0
DLD1 BRCA2 -/- cells; colony survival, versus BRCA2-WT
  selective killing / synthetic lethality in BRCA2-null DLD1 cells: selective killing; also recorded: induction of synthetic lethality
DLD1 Parental cells
  Average (colonies): 102.667
  Percent survival: 99.6764

## Cn1ncnc1[C@H]1c2n[nH]c(=O)c3cc(F)cc(c23)N[C@@H]1c1ccc(F)cc1 [Talazoparib]
MDA-MB-231 cells; Talazoparib 12.5 nano M, experiment block 1 (c0-c7)
  percent suvival: 83.7456%
MDA-MB-231 cells; Talazoparib 12.5 nano M, experiment block 2 (c8-c15)
  percent suvival: 90.5063%
MDA-MB-231 cells; Talazoparib 12.5 nano M, experiment block 3 (c16-c23)
  percent suvival: 79.3478%
MDA-MB-231 cells; Talazoparib 25 nano M, experiment block 1 (c0-c7)
  percent suvival: 72.4382%
MDA-MB-231 cells; Talazoparib 25 nano M, experiment block 2 (c8-c15)
  percent suvival: 53.1646%
MDA-MB-231 cells; Talazoparib 25 nano M, experiment block 3 (c16-c23)
  percent suvival: 57.0652%
MDA-MB-231 cells; Talazoparib 50 nano M, experiment block 1 (c0-c7)
  percent suvival: 24.735%
MDA-MB-231 cells; Talazoparib 50 nano M, experiment block 2 (c8-c15)
  percent suvival: 34.1772%
MDA-MB-231 cells; Talazoparib 50 nano M, experiment block 3 (c16-c23)
  percent suvival: 30.9783%
